# Measurements from patent US9493444B2 (Merck Patent GmbH, priority 2012, dated 2016).
# System: Wnt pathway (TCF-dependent transcription in HEK293 luciferase reporter cell line with ER-DSH construct)
# Test: Cellular assay for Wnt pathway activity (luciferase reporter)
# Type: cell-based
# Settings: Homo sapiens; Wnt pathway inhibition, HEK293 luciferase reporter cells (ER-DSH, TCF promoter), 24 hours incubation, estrogen-induced
# Summary of the method: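 Luminescent luciferase read-out after 24 h compound exposure at 1 nM to 30 μM, with TCF-driven transcription switched on by estrogen addition. IC50 values come from curve fits of data normalized against the vehicle-only control.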
row,SMILES,IC50 [nM]
1,"N#Cc1cnccc1-c1ccc(Oc2cncc(NCCN3CCCCC3=O)n2)cc1 [Compound 296, 4-(4-{6-[2-(2-Oxo-piperidin-1-yl)-ethylamino]-pyrazin-2-yloxy}-phenyl)-nicotinonitrile]",200 to 1000
2,"Cc1ccc(-c2ccc(Oc3cncc(NCCC(N)=O)n3)cc2)nc1 [Compound 298, 3-{6-[4-(5-Methyl-pyridin-2-yl)-phenoxy]-pyrazin-2-ylamino}-propionamide]",200 to 1000
3,"NC(=O)CCNc1cncc(Oc2ccc(-c3ccc(CO)nc3)cc2)n1 [Compound 299, 3-{6-[4-(6-Hydroxy-methyl-pyridin-3-yl)-phenoxy]-pyrazin-2-ylamino}-propionamide]",1000 to 10000
4,"CS(=O)(=O)c1cncc(-c2ccc(Oc3cncc(NCCC(N)=O)n3)cc2)c1 [Compound 300, 3-{6-[4-(5-Methane-sulfonyl-pyridin-3-yl)-phenoxy]-pyrazin-2-ylamino}-propionamide]",≥ 10000
5,"NC(=O)CCNc1cncc(Oc2ccc(-c3cnc(N)cn3)cc2)n1 [Compound 301, 3-{6-[4-(5-Amino-pyrazin-2-yl)-phenoxy]-pyrazin-2-ylamino}-propionamide]",1000 to 10000
6,"CC(=O)N(C)CCNc1cncc(Oc2ccc(-c3cccnc3)c(F)c2F)n1 [Compound 302, N-{2-[6-(2,3-Difluoro-4-pyridin-3-yl-phenoxy)-pyrazin-2-ylamino]-ethyl}-N-methyl-acetamide]",1000 to 10000
7,"O=C1[C@@H]2CC[C@@H](C2)N1CCCc1cncc(Oc2ccc(F)cc2)n1 [Compound 303, (1S,4R)-2-{3-[6-(4-Fluoro-phenoxy)-pyrazin-2-yl]-propyl}-2-aza-bicyclo[2.2.1]heptan-3-one]",200 to 1000
8,"CC(=O)N(C)CCCc1cncc(Oc2ccc(F)cc2)c1 [Compound 304, N-{3-[5-(4-Fluoro-phenoxy)-pyridin-3-yl]-propyl}-N-methyl-acetamide]",200 to 1000
9,"CC(=O)N(C)CCCc1cnc(N)c(Oc2ccc(F)cc2)c1 [Compound 306, N-{3-[6-Amino-5-(4-fluoro-phenoxy)-pyridin-3-yl]-propyl}-N-methyl-acetamide]",1000 to 10000
10,"O=C1CCCCN1CCNc1cncc(Oc2ccc(N3CCOCC3)cc2)n1 [Compound 307, 1-{2-[6-(4-Morpholin-4-yl-phenoxy)-pyrazin-2-ylamino]-ethyl}-piperidin-2-one]",200 to 1000
11,"CC(N)C(=O)N(C)CCN(C)c1cncc(Oc2ccc(F)cc2)n1 (centres unmarked) [Compound 308, 2-Amino-N-(2-{[6-(4-fluoro-phenoxy)-pyrazin-2-yl]-methyl-amino}-ethyl)-N-methyl-propionamide]",1000 to 10000
12,CC(=O)N(C)CCN(C)c1cncc(Oc2ccc(-c3ccc(CN)nc3)cc2)n1 [Compound 309],< 200
13,"CC(=O)N(C)CCN(C)c1cncc(Oc2ccc(F)cc2)c1 [Compound 310, N-(2-{[5-(4-Fluoro-phenoxy)-pyridin-3-yl]-methyl-amino}-ethyl)-N-methyl-acetamide]",1000 to 10000
14,"CN(C=O)CCNc1cncc(Oc2ccc(-c3cccc(N4CCN(C)CC4)n3)cc2)n1 [Compound 311, N-Methyl-N-[2-(6-{4-[6-(4-methyl-piperazin-1-yl)-pyridin-2-yl]-phenoxy}-pyrazin-2-ylamino)-ethyl]-formamide]",200 to 1000
15,"CC(=O)N(C)CCCc1cncc(Oc2ccc(-c3ccc(C)cn3)cc2)c1 [Compound 312, N-Methyl-N-(3-{5-[4-(5-methyl-pyridin-2-yl)-phenoxy]-pyridin-3-yl}-propyl)-acetamide]",1000 to 10000
16,"CC(=O)N(C)CCN(C)c1cncc(Oc2ccc(-c3cnn(C)c3)cc2)n1 [Compound 313, N-Methyl-N-[2-(methyl-{6-[4-(1-methyl-1H-pyrazol-4-yl)-phenoxy]-pyrazin-2-yl}-amino)-ethyl]-acetamide]",< 200
17,"CC(=O)N(C)CCCc1cc(Oc2ccc(-c3cccc(N4CCN(C)CC4)n3)cc2)c[n+]([O-])c1 [Compound 314, N-Methyl-N-[3-(5-{4-[6-(4-methyl-piperazin-1-yl)-pyridin-2-yl]-phenoxy}-1-oxy-pyridin-3-yl)-propyl]-acetamide]",1000 to 10000
18,"CC(=O)N(C)CCNc1cncc(Oc2ccc(F)cc2)c1 [Compound 315, N-{2-[5-(4-Fluoro-phenoxy)-pyridin-3-ylamino]-ethyl}-N-methyl-acetamide]",≥ 10000
19,"CC(=O)N(C)CCCc1cncc(Oc2ccc(-c3cccc(N4CCN(C)CC4)n3)cc2)c1 [Compound 316, N-Methyl-N-[3-(5-{4-[6-(4-methyl-piperazin-1-yl)-pyridin-2-yl]-phenoxy}-pyridin-3-yl)-propyl]-acetamide]",1000 to 10000
20,"CC(=O)N(C)CCN(C)c1cncc(Oc2ccc3c(cnn3C)c2)n1 [Compound 317, N-Methyl-N-(2-{methyl-[6-(1-methyl-1H-indazol-5-yloxy)-pyrazin-2-yl]-amino}-ethyl)-acetamide]",< 200
21,"CC(=O)N(C)CCCc1cncc(Oc2ccc(-c3ccc(N4CCOCC4)nc3)cc2)c1 [Compound 318, N-Methyl-N-(3-{5-[4-(6-morpholin-4-yl-pyridin-3-yl)-phenoxy]-pyridin-3-yl}-propyl)-acetamide]",200 to 1000
22,"CC(=O)N(C)CCNc1cncc(Cc2ccccc2)n1 [Compound 319, N-[2-(6-Benzyl-pyrazin-2-ylamino)-ethyl]-N-methyl-acetamide]",200 to 1000
23,"CC(=O)N(C)CCN(C)c1cncc(Oc2ccc(-c3ccc(C)cn3)cc2)c1 [Compound 320, N-Methyl-N-[2-(methyl-{5-[4-(5-methyl-pyridin-2-yl)-phenoxy]-pyridin-3-yl}-amino)-ethyl]-acetamide]",200 to 1000
24,"CC(=O)N(C)CCCc1cncc(Oc2ccc(-c3ccncc3C#N)cc2)c1 [Compound 321, N-(3-{5-[4-(3-Cyano-pyridin-4-yl)-phenoxy]-pyridin-3-yl}-propyl)-N-methyl-acetamide]",< 200
25,"CC(=O)N(C)CCNc1cncc(Cc2ccc(F)cc2)n1 [Compound 322, N-{2-[6-(4-Fluoro-benzyl)-pyrazin-2-ylamino]-ethyl}-N-methyl-acetamide]",1000 to 10000
26,"CC(=O)N(C)CCCc1cncc(Oc2ccc(-c3cnc(N)cn3)cc2)c1 [Compound 323, N-(3-{5-[4-(5-Amino-pyrazin-2-yl)-phenoxy]-pyridin-3-yl}-propyl)-N-methyl-acetamide]",200 to 1000
